PubChem BioAssay (NCI)
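Cells were grown in 96-well plates and exposed to each compound for 48 hours at five concentrations; endpoints were interpolated linearly between bracketing concentrations, or set to the highest concentration if not reached. TGI: total growth inhibition.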

What was measured:
Test in all cases: growth of human tumour cells (NCI), 48 h
SK-MEL-5 melanoma = tested on: SK-MEL-5 melanoma
XF 498 CNS = tested on: XF 498 CNS
DMS 273 small cell lung = tested on: DMS 273 small cell lung
SF-268 CNS = tested on: SF-268 CNS
DLD-1 colon = tested on: DLD-1 colon
UACC-257 melanoma = tested on: UACC-257 melanoma
KM20L2 colon = tested on: KM20L2 colon
HCT-15 colon = tested on: HCT-15 colon
SNB-78 CNS = tested on: SNB-78 CNS
SR leukemia = tested on: SR leukemia
IGROV1 ovarian = tested on: IGROV1 ovarian
A498 renal = tested on: A498 renal
M19-MEL melanoma = tested on: M19-MEL melanoma

Compound | TGI (SK-MEL-5 melanoma) [µM] | TGI (XF 498 CNS) [µM] | TGI (DMS 273 small cell lung) [µM] | TGI (SF-268 CNS) [µM] | TGI (DLD-1 colon) [µM] | TGI (UACC-257 melanoma) [µM] | TGI (KM20L2 colon) [µM] | TGI (HCT-15 colon) [µM] | TGI (SNB-78 CNS) [µM] | TGI (SR leukemia) [µM] | TGI (IGROV1 ovarian) [µM] | TGI (A498 renal) [µM] | TGI (M19-MEL melanoma) [µM]
C[C@]1(CO)CCC[C@@]2(C)C1CC[C@H]1CC3C[C@]12CC[C@]3(C)O (stereo not given in full) | 35.2 | > 100 | > 100 | > 100 | > 100 | > 100 | > 100 | > 100 | > 100 | > 100 |  |  | 
Clc1ccc(C2SCc3nc4ccccc4n32)cc1Cl (stereo not given) | 21 | 24.4 |  | 37.6 | 25.2 |  |  | 28.4 | 29.1 | 55.1 | 38.8 |  | 
O=CC[C@H]1CCc2ccccc2C12CCC(=O)CC2 | > 100 | > 100 |  | > 100 | > 100 | > 100 | > 100 | > 100 |  |  | > 100 | > 100 | > 100
CCc1cccc(C(C)C)c1NC(=O)C(=O)C(CC(=O)Nc1ccc(Cl)c(Cl)c1)C(=O)OC (stereo not given) | > 100 | > 100 | > 100 | > 100 | > 100 | > 100 | > 100 | 32.8 | > 100 | > 100 | > 100 | > 100 | > 100
C1=CC=C2NCCCNC3=CC=CC=CC3=NCCCN=C2C=C1 | > 100 | > 100 | > 100 | > 100 | > 100 |  | > 100 | > 100 | > 100 |  | > 100 | > 100 | > 100
COc1cc(OC)c(C2CC=Cc3c(OC)cc(OC)c(OC)c32)cc1OC (stereo not given) | > 100 | > 100 | > 100 | > 100 | > 100 | > 100 | > 100 | > 100 | > 100 | > 100 | > 100 | > 100 | > 100
O=C(CC1(O)C(=O)Nc2c(Cl)cc(Cl)cc21)c1cccc2ccccc12 (stereo not given) | 28.4 | 34.8 | 27.5 | 40.4 | 33 | 29.8 | 34.1 | 31 | 46.6 | 38.5 | 36.9 | 37.3 | 
COCCCNC(=O)CC(=O)NCCCOC | > 100 |  |  | > 100 | > 100 | > 100 | > 100 | > 100 | > 100 | > 100 | > 100 | > 100 | > 100
CCOC(=O)C(=Cc1ccc(Oc2ccccc2)cc1)C(=O)OCC | 3.9 | 11.3 | 3.68 | 9.19 | 5.21 | 6.63 | 16.8 | 6.35 |  | 6.07 | 20.8 | 28.8 | 
CCC(=O)c1c(NOC2OC(COC(C)=O)C(OC(C)=O)C(OC(C)=O)C2OC(C)=O)nc(OC)n(C)c1=O (stereo not given) | > 100 | > 100 | > 100 | > 100 | > 100 |  | > 100 | > 100 | > 100 | > 100 | > 100 |  | > 100
